Data from ChEMBL document CHEMBL1641487, “Aspergilones A and B, two benzylazaphilones with an unprecedented carbon skeleton from the gorgonian-derived fungus Aspergillus sp” (Bioorg Med Chem Lett, 2011).
Values after ≈ are worked out from the molar mass of the structure shown.

Tests used:
A549 = assay: Cytotoxicity against human A549 cells; format: functional, cell-based
MCF7 = assay: Cytotoxicity against human MCF7 cells; format: functional, cell-based
HL-60 = assay: Cytotoxicity against human HL60 cells; format: functional, cell-based
Amphibalanus amphitrite = assay: Antifouling activity against Balanus amphitrite assessed as larval settlement barnacle; format: functional, organism-based

| SMILES | IC50 (A549) [µg/mL] | IC50 (MCF7) [µg/mL] | IC50 (HL-60) [µg/mL] | EC50 (Amphibalanus amphitrite) [µg/mL] |
| --- | --- | --- | --- | --- |
| CC1=C2C(=CO[C@@H](C)[C@@H]2C)C(=O)[C@@](Cc2ccccc2)(C[C@]2(Cc3ccccc3)C(=O)C3=CO[C@@H](C)[C@H](C)C3=C(C)C2=O)C1=O [ASPERGILONE B] | > 50 | > 50 | > 50 | – |
| CC1=C2C(=CO[C@@H](C)[C@@H]2C)C(=O)C(Cc2ccccc2)(Cc2ccccc2)C1=O [ASPERGILONE A] | 37 (≈ 95.7 µM) | 25 (≈ 64.7 µM) | 3.2 (≈ 8.28 µM) | 25 (≈ 64.7 µM) |
